Measurements reported in paper PMC4917279 (Journal of Medicinal Chemistry, 2016).

Columns and labels:
Assay in all cases: KINOMEscan
Format in all cases: binding
Details in all cases: read-out: %Ctrl @ 1000 nM
SRPK3 = biological target: T1, SRPK3 (Homo sapiens, UniProt Q9UPE1)
T1 construct: purchased DiscoveRx KINOMEscan

MTOR = biological target: T2, MTOR (Homo sapiens, UniProt P42345)
T2 construct: purchased DiscoveRx KINOMEscan

STK33 = biological target: T3, STK33 (Homo sapiens, UniProt Q9BYT3)
T3 construct: purchased DiscoveRx KINOMEscan
T3 sequence (Q9BYT3 whole entry): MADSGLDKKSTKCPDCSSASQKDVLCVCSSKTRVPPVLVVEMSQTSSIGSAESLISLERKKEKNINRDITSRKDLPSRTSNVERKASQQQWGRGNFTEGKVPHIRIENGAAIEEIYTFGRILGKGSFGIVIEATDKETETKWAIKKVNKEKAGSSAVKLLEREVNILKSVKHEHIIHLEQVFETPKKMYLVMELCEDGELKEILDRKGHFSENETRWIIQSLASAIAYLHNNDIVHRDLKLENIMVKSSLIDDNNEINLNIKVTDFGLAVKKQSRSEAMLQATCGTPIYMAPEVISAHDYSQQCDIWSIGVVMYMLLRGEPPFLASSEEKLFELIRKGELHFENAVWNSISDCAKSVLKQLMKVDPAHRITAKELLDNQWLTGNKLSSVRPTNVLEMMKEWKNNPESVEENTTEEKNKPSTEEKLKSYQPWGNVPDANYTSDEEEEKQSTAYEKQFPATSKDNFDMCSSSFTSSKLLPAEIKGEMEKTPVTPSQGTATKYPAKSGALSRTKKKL

ANKK1 = biological target: T4, ANKK1 (Homo sapiens, UniProt Q8NFD2)
T4 construct: purchased DiscoveRx KINOMEscan

ACVR2A = biological target: T5, ACVR2A (Homo sapiens, UniProt P27037)
T5 construct: purchased DiscoveRx

EPHA7 = biological target: T6, EPHA7 (Homo sapiens, UniProt Q15375)
T6 construct: purchased DiscoveRx KINOMEscan

DAPK3 = biological target: T7, DAPK3 (Homo sapiens, UniProt O43293)
T7 construct: purchased DiscoveRx KINOMEscan
T7 sequence (O43293 whole entry): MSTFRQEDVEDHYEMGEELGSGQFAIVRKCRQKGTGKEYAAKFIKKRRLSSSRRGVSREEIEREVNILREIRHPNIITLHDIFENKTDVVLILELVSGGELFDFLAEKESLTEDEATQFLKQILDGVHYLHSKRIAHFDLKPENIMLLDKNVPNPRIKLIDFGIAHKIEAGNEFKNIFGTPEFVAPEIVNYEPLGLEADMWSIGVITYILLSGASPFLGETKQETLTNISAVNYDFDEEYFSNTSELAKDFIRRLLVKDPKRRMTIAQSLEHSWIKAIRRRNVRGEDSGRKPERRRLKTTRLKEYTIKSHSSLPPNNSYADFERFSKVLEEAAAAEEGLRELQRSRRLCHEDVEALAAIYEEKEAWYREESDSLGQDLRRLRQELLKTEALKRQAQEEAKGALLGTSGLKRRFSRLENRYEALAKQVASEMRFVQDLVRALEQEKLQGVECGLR

EPHB6 = biological target: T8, EPHB6 (Homo sapiens, UniProt O15197)
T8 construct: purchased DiscoveRx KINOMEscan

p38-alpha = biological target: T9, p38-alpha (Homo sapiens, UniProt Q16539)
T9 construct: purchased DiscoveRx KINOMEscan
T9 sequence (Q16539 whole entry): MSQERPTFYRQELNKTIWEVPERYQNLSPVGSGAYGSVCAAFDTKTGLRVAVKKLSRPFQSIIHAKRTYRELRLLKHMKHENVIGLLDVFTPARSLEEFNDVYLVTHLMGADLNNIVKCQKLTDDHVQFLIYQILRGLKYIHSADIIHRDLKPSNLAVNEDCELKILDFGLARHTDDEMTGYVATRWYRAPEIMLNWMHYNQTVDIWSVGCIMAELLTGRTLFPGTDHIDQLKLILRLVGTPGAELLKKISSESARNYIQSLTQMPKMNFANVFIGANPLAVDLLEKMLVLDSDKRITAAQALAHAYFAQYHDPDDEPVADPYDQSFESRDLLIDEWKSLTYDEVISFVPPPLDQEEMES

CDK4-cyclinD1 = biological target: T10, CDK4-cyclinD1 (Homo sapiens, UniProt P11802)
T10 construct: purchased DiscoveRx KINOMEscan

ULK1 = biological target: T11, ULK1 (Homo sapiens, UniProt O75385)
T11 construct: purchased DiscoveRx KINOMEscan

PKN2 = biological target: T12, PKN2 (Homo sapiens, UniProt Q16513)
T12 construct: purchased DiscoveRx KINOMEscan

CSNK1G2 = biological target: T13, CSNK1G2 (Homo sapiens, UniProt P78368)
T13 construct: purchased DiscoveRx KINOMEscan
T13 sequence (P78368 whole entry): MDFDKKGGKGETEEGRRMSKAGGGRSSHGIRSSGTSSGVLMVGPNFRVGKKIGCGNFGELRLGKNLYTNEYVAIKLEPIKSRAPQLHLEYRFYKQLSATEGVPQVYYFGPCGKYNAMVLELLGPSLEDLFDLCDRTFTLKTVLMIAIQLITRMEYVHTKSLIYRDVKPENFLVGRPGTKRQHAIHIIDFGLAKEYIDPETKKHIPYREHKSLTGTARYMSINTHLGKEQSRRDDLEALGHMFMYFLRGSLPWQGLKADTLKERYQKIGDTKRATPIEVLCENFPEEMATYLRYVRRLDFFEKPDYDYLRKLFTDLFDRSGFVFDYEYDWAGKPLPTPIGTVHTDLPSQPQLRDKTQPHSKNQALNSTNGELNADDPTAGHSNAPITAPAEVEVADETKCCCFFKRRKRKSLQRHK

PIK3CA(E545K) = biological target: T14, PIK3CA(E545K) (Homo sapiens, UniProt P42336, E545K)
T14 construct: purchased DiscoveRx KINOMEscan

PLK4 = biological target: T15, PLK4 (Homo sapiens, UniProt O00444)
T15 construct: purchased DiscoveRx KINOMEscan

PFTK1 = biological target: T16, PFTK1 (Homo sapiens, UniProt O94921)
T16 construct: purchased DiscoveRx KINOMEscan
T16 sequence (O94921 whole entry): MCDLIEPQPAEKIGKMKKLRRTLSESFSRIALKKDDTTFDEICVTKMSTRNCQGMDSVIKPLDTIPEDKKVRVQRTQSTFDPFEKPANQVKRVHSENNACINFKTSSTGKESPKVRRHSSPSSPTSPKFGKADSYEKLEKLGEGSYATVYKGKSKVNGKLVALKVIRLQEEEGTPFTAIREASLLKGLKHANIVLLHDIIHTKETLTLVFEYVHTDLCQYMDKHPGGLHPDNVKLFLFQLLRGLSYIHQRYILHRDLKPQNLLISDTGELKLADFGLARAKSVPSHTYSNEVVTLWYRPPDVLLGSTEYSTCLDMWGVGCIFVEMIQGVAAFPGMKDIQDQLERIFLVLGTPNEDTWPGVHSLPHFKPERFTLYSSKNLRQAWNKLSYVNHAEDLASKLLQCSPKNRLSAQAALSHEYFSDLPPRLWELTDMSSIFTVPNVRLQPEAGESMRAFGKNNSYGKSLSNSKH

KIT-autoinhibited = biological target: T17, KIT-autoinhibited (Homo sapiens, UniProt P10721)
T17 construct: purchased DiscoveRx KINOMEscan

PIK3CG = biological target: T18, PIK3CG (Homo sapiens, UniProt P48736)
T18 construct: purchased DiscoveRx KINOMEscan
T18 sequence (P48736 whole entry): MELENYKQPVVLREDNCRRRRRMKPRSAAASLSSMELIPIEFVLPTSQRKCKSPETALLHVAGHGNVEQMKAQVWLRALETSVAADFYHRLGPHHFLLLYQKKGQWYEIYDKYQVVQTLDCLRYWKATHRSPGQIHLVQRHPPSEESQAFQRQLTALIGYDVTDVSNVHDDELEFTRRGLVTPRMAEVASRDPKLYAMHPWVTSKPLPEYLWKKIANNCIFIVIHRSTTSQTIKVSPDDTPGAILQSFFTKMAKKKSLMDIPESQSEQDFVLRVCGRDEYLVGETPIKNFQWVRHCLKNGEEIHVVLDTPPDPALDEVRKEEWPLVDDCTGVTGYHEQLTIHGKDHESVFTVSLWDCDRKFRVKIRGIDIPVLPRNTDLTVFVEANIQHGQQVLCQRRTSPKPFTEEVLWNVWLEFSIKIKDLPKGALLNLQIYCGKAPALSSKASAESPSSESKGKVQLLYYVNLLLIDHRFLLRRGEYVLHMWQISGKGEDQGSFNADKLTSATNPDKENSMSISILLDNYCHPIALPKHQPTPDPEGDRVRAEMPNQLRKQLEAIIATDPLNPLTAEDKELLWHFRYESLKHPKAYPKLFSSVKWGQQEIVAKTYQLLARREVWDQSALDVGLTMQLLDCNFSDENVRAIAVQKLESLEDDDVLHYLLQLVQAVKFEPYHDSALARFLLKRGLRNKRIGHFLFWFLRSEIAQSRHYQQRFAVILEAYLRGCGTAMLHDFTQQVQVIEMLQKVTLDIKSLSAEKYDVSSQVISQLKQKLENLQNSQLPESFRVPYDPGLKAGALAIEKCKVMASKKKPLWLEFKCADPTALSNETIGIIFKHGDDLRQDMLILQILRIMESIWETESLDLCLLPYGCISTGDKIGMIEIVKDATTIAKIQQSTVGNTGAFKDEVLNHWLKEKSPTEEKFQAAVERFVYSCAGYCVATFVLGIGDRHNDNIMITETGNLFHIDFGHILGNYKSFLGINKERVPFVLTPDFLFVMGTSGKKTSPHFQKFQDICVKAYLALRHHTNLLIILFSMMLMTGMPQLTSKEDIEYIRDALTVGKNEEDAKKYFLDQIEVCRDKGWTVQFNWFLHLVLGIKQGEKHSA

KIT(V559D,T670I) = biological target: T19, KIT(V559D,T670I) (Homo sapiens, UniProt P10721, T670I/V559D)
T19 construct: purchased DiscoveRx KINOMEscan

MAP3K1 = biological target: T20, MAP3K1 (Homo sapiens, UniProt Q13233)
T20 construct: purchased DiscoveRx KINOMEscan

BLK = biological target: T21, BLK (Homo sapiens, UniProt P51451)
T21 construct: purchased DiscoveRx KINOMEscan

BUB1 = biological target: T22, BUB1 (Homo sapiens, UniProt O43683)
T22 construct: purchased DiscoveRx KINOMEscan
T22 sequence (O43683 whole entry): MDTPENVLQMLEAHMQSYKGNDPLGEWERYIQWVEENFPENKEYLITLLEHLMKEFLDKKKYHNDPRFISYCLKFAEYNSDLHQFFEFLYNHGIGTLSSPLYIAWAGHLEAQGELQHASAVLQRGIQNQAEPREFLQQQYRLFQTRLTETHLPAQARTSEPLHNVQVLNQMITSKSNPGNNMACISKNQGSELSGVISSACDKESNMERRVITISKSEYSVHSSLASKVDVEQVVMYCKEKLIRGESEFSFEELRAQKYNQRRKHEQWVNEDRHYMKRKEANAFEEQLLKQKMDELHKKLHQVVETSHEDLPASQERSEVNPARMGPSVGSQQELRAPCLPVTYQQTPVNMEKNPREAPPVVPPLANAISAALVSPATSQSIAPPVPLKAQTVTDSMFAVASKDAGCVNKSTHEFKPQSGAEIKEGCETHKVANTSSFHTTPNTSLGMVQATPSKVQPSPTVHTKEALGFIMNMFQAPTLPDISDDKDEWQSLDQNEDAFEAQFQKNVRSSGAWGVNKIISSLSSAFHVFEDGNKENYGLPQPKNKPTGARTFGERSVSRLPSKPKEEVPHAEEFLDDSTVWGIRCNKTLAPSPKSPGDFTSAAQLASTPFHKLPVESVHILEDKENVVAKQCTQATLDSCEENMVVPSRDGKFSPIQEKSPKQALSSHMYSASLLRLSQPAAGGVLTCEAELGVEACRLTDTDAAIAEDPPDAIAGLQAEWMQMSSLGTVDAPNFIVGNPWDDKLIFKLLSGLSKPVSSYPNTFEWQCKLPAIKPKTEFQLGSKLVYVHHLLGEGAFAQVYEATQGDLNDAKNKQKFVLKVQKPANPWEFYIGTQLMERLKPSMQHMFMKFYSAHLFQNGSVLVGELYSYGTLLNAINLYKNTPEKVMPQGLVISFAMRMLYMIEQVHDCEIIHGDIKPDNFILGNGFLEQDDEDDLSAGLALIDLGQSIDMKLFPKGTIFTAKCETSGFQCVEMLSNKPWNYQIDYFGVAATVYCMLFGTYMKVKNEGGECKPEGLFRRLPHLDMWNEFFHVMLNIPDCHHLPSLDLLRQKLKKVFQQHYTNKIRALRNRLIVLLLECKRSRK

SIK2 = biological target: T23, SIK2 (Homo sapiens, UniProt Q9H0K1)
T23 construct: purchased DiscoveRx KINOMEscan

TLK2 = biological target: T24, TLK2 (Homo sapiens, UniProt Q86UE8)
T24 construct: purchased DiscoveRx KINOMEscan

IRAK1 = biological target: T25, IRAK1 (Homo sapiens, UniProt P51617)
T25 construct: purchased DiscoveRx KINOMEscan

PIK3CA(I800L) = biological target: T26, PIK3CA(I800L) (Homo sapiens, UniProt P42336, I800L)
T26 construct: purchased DiscoveRx KINOMEscan

TSSK1B = biological target: T27, TSSK1B (Homo sapiens, UniProt Q9BXA7)
T27 construct: purchased DiscoveRx KINOMEscan
T27 sequence (Q9BXA7 whole entry): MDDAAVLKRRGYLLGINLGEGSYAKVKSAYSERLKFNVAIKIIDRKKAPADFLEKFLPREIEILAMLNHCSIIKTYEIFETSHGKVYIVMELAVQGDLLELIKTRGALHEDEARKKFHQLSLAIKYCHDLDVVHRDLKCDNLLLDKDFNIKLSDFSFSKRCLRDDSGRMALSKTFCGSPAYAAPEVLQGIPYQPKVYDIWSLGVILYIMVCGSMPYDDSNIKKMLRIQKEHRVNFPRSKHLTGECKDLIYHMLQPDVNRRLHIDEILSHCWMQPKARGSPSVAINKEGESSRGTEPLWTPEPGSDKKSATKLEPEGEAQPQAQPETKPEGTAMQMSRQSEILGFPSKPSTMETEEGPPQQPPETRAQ

FLT3-autoinhibited = biological target: T28, FLT3-autoinhibited (Homo sapiens, UniProt P36888)
T28 construct: purchased DiscoveRx KINOMEscan

EGFR(G719S) = biological target: T29, EGFR(G719S) (Homo sapiens, UniProt P00533, G719S)
T29 construct: purchased DiscoveRx KINOMEscan

[1] = biological target: RPS6KA5(Kin.Dom.2-C-terminal) (Homo sapiens, UniProt O75582)
ALK(L1196M) = biological target: T30, ALK(L1196M) (Homo sapiens, UniProt Q9UM73, L1196M)
T30 construct: purchased DiscoveRx KINOMEscan

EPHB3 = biological target: T31, EPHB3 (Homo sapiens, UniProt P54753)
T31 construct: purchased DiscoveRx KINOMEscan

BRAF(V600E) = biological target: T32, BRAF(V600E) (Homo sapiens, UniProt P15056, V600E)
T32 construct: purchased DiscoveRx KINOMEscan

MEK2 = biological target: T33, MEK2 (Homo sapiens, UniProt P36507)
T33 construct: purchased DiscoveRx KINOMEscan

ERN1 = biological target: T34, ERN1 (Homo sapiens, UniProt O75460)
T34 construct: purchased DiscoveRx KINOMEscan

YANK2 = biological target: T35, YANK2 (Homo sapiens, UniProt Q9NY57)
T35 construct: purchased DiscoveRx KINOMEscan

[2] = biological target: T36, JAK3(JH1domain-catalytic) (Homo sapiens, UniProt P52333)
T36 construct: JAK3(JH1domain-catalytic); purchased DiscoveRx KINOMEscan

TRPM6 = biological target: T37, TRPM6 (Homo sapiens, UniProt Q9BX84)
T37 construct: purchased DiscoveRx KINOMEscan

[3] = biological target: T38, ABL1(H396P)-phosphorylated (Homo sapiens, UniProt P00519, H396P)
T38 construct: purchased DiscoveRx (KINOMEscan service)

MAP4K2 = biological target: T39, MAP4K2 (Homo sapiens, UniProt Q12851)
T39 construct: purchased DiscoveRx KINOMEscan

TRKB = biological target: T40, TRKB (Homo sapiens, UniProt Q16620)
T40 construct: purchased DiscoveRx KINOMEscan

TLK1 = biological target: T41, TLK1 (Homo sapiens, UniProt Q9UKI8)
T41 construct: purchased DiscoveRx KINOMEscan

DCAMKL3 = biological target: T42, DCAMKL3 (Homo sapiens, UniProt Q9C098)
T42 construct: purchased DiscoveRx KINOMEscan

Q: Which remaining binding at 1 µM (SRPK3) does the source give for `CCN(C(=O)CO)[C@H]1CN(/C(=N\C#N)Nc2cccc(OC(F)F)c2)N=C1c1ccc(Cl)c(Cl)c1` [(S)-4] here?
A: 79%

Q: What about the remaining binding at 1 µM (MTOR) of the same compound?
A: 100%

Q: And the remaining binding at 1 µM (STK33)?
A: 83%

Q: And the remaining binding at 1 µM (ANKK1)?
A: 92%

Q: What about the remaining binding at 1 µM (ACVR2A) of the same compound?
A: 100%

Q: And the remaining binding at 1 µM (EPHA7)?
A: 91%

Q: What about the remaining binding at 1 µM (DAPK3) of the same compound?
A: 94%

Q: What about the remaining binding at 1 µM (EPHB6) of the same compound?
A: 100%

Q: What about the remaining binding at 1 µM (p38-alpha) of the same compound?
A: 86%

Q: And the remaining binding at 1 µM (CDK4-cyclinD1)?
A: 93%

Q: And the remaining binding at 1 µM (ULK1)?
A: 64%

Q: What about the remaining binding at 1 µM (PKN2) of the same compound?
A: 100%

Q: And the remaining binding at 1 µM (CSNK1G2)?
A: 94%

Q: What about the remaining binding at 1 µM (PIK3CA(E545K)) of the same compound?
A: 71%

Q: And the remaining binding at 1 µM (PLK4)?
A: 56%

Q: What about the remaining binding at 1 µM (PFTK1) of the same compound?
A: 84%

Q: And the remaining binding at 1 µM (KIT-autoinhibited)?
A: 90%

Q: And the remaining binding at 1 µM (PIK3CG)?
A: 90%

Q: What about the remaining binding at 1 µM (KIT(V559D,T670I)) of the same compound?
A: 100%

Q: What about the remaining binding at 1 µM (MAP3K1) of the same compound?
A: 100%

Q: What about the remaining binding at 1 µM (BLK) of the same compound?
A: 88%

Q: And the remaining binding at 1 µM (BUB1)?
A: 100%

Q: What about the remaining binding at 1 µM (SIK2) of the same compound?
A: 99%

Q: And the remaining binding at 1 µM (TLK2)?
A: 93%

Q: What about the remaining binding at 1 µM (IRAK1) of the same compound?
A: 92%

Q: What about the remaining binding at 1 µM (PIK3CA(I800L)) of the same compound?
A: 90%

Q: And the remaining binding at 1 µM (TSSK1B)?
A: 79%

Q: What about the remaining binding at 1 µM (FLT3-autoinhibited) of the same compound?
A: 100%

Q: And the remaining binding at 1 µM (EGFR(G719S))?
A: 78%

Q: And the remaining binding at 1 µM [1]?
A: 99%

Q: And the remaining binding at 1 µM (ALK(L1196M))?
A: 92%

Q: What about the remaining binding at 1 µM (EPHB3) of the same compound?
A: 99%

Q: And the remaining binding at 1 µM (BRAF(V600E))?
A: 100%

Q: What about the remaining binding at 1 µM (MEK2) of the same compound?
A: 90%

Q: And the remaining binding at 1 µM (ERN1)?
A: 93%

Q: What about the remaining binding at 1 µM (YANK2) of the same compound?
A: 98%

Q: And the remaining binding at 1 µM [2]?
A: 48%

Q: What about the remaining binding at 1 µM (TRPM6) of the same compound?
A: 80%

Q: What about the remaining binding at 1 µM [3] of the same compound?
A: 88%

Q: What about the remaining binding at 1 µM (MAP4K2) of the same compound?
A: 96%

Q: And the remaining binding at 1 µM (TRKB)?
A: 100%

Q: And the remaining binding at 1 µM (TLK1)?
A: 100%

Q: What about the remaining binding at 1 µM (DCAMKL3) of the same compound?
A: 75%
